Here are results for 1 substance from patent US8486373B2, “Intramolecularly-quenched near infrared fluorescent probes” (The General Hospital Corporation, priority 1998, dated 2013).

The data set can be described thus: Properties of commercially-available near infrared fluorochromes. The note with it: Cy5.5 free in solution, FIG. 3A. In kind it is physicochemical. From the text: Fluorescent probes with excitation and emission wavelengths in the near infrared spectrum are used, i.e., 650-1300 nm. Use of this portion of the electromagnetic spectrum maximizes tissue penetration and minimizes absorption by physiologically abundant absorbers such as hemoglobin (<650 nm) and water (>1200 nm). […] Table 1 summarizes information on the properties of six commercially-available near infrared fluorochromes, whose structures are shown in FIGS. 2A and 2B.

Take Cy5.5: the “emission wavelength / peak emission” value was determined as 694 nm.
